Laboratory results taken from PMC11203266, “Continuous evolution of compact protein degradation tags regulated by selective molecular glues” (Science (New York, N.Y.), 2024).

Experiments:
Assay type in all cases: cell-based, human
MOLT4 cells = assay: Global quantitative proteomics, MOLT4; settings: 1 µM; for proteins downregulated (in words): 5 hours, threshold ≥ 2-fold at p ≤ 0.0001
Method: (§1) Cells were lysed by addition of lysis buffer (8 M Urea, 50 mM NaCl, 50 mM 4-(2-hydroxyethyl)-1-piperazineethanesulfonic acid (EPPS) pH 8.5, Protease and Phosphatase inhibitors) and homogenization by bead beating (BioSpec) for three repeats of 30 seconds at 2400. Bradford assay was used to determine the final protein concentration in the clarified cell lysate. 50 μg of protein for each sample was reduced, alkylated and precipitated using methanol/chloroform as previously described ([32]) and the resulting washed precipitated protein was allowed to air dry. Precipitated protein was resuspended in 4 M Urea, 50 mM HEPES pH 7.4, followed by dilution to <1 M urea with the addition of 200 mM EPPS, pH 8. Proteins were digested with LysC (1:50; enzyme:protein) and trypsin (1:50; enzyme:protein) overnight at 37 °C. Sample digests were acidified with formic acid to a pH of 2-3 prior to desalting using C18 solid phase extraction plates (SOLA, Thermo Fisher Scientific). Desalted peptides were dried in a vacuum centrifuge and reconstituted in 0.1% formic acid for LC-MS analysis.
(§2) Data were collected using a TimsTOF Pro2 (Bruker Daltonics, Bremen, Germany) coupled to a nanoElute LC pump (Bruker Daltonics, Bremen, Germany) via a CaptiveSpray nano-electrospray source. Peptides were separated on a reversed-phase C18 column (25 cm x 75 μm ID, […], IonOpticks, Australia) containing an integrated captive spray emitter. Peptides were separated using a 50 min gradient of 2 – 30% buffer B (acetonitrile in 0.1% formic acid) with a flow rate of 250 nL/min and column temperature maintained at 50 °C.
(§3) DDA was performed in Parallel Accumulation-Serial Fragmentation (PASEF) mode to determine effective ion mobility windows for downstream diaPASEF data collection (Meier et al., 2020). The ddaPASEF parameters included: 100% duty cycle using accumulation and ramp times of 50 ms each, 1 TIMS-MS scan and 10 PASEF ramps per acquisition cycle. The TIMS-MS survey scan was acquired between 100–1700 m/z and 1/k0 of 0.7–1.3 V.s/cm^2. Precursors with 1–5 charges were selected and those that reached an intensity threshold of 20,000 arbitrary units were actively excluded for 0.4 min. The quadrupole isolation width was set to 2 m/z for m/z <700 and 3 m/z for m/z >800, with the m/z between 700–800 m/z being interpolated linearly. The TIMS elution voltages were calibrated linearly with three points (Agilent ESI-L Tuning Mix Ions; 622, 922, 1,222 m/z) to determine the reduced ion mobility coefficients (1/K0). To perform diaPASEF, the precursor distribution in the DDA m/z-ion mobility plane was used to design an acquisition scheme for DIA data collection which included two windows in each 50 ms diaPASEF scan. Data was acquired using sixteen of these 25 Da precursor double window scans (creating 32 windows) which covered the diagonal scan line for doubly and triply charged precursors, with singly charged precursors able to be excluded by their position in the m/z-ion mobility plane. These precursor isolation windows were defined between 400–1200 m/z and 1/k0 of 0.7–1.3 V.s/cm^2.
(§4) The diaPASEF raw file processing and controlling peptide and protein level false discovery rates, assembling proteins from peptides, and protein quantification from peptides was performed using either targeted, cell line specific spectral libraries generated by searching offline fractionated DDApasef data against a Swissprot human or mouse database (January 2021) or using library free analysis in DIA-NN 1.8 ([85]). Library free mode performs an in-silico digestion of a given protein sequence database alongside deep learning-based predictions to extract the DIA precursor data into a collection of MS2 spectra. The search results are then used to generate a spectral library which is then employed for the targeted analysis of the DIA data searched against a Swissprot human or mouse database (January 2021). […]

HEK293T cells = assay: Global quantitative proteomics, HEK293T; settings: 1 µM; for proteins downregulated (in words): 5 hours
Method: as §1, §2, §3, §4

[1] = tested on: HEK293T cells stably expressing SD40–eGFP; assay: Global quantitative proteomics, HEK293T expressing SD40–eGFP; settings: 1 µM
Method: To test the versatility of SD40, we generated five stable HEK293T cell lines that exogenously express N- or C-terminal SD40 fusions with Nluc, Fluc, and the kinase activator PRKRA. […] To investigate whether SD40 targets unintended neosubstrates for degradation, we performed global proteomics using HEK293T cells stably expressing SD40–eGFP.
as §1, §2, §3
The diaPASEF raw file processing and controlling peptide and protein level false discovery rates, assembling proteins from peptides, and protein quantification from peptides was performed using either targeted, cell line specific spectral libraries generated by searching offline fractionated DDApasef data against a Swissprot human or mouse database (January 2021) or using library free analysis in DIA-NN 1.8 ([85]). […]

MM.1S cells = assay: Whole-transcriptome RNA-Seq; settings: for differentially expressed genes: 1 μM, 48 hrs, fold-change > 2, FDR-corrected P < 0.01
Method: The effect of small molecule treatment on transcriptome-wide RNA expression was evaluated using bulk RNA sequencing of 5 biological replicates per sample. […] 48 hours following treatment, cells were washed with PBS and lysed in RLT buffer (Qiagen) with β-mercaptoethanol. Total RNA from each sample was purified from 2–4×10^5 cells using the RNeasy Mini Kit (Qiagen) with on-column DnaseI digestion and eluted in nuclease-free water. Polyadenylated RNA was sequenced using Smart-seq2 as previously described ([82]) with two changes: 20 ng of total RNA and Maxima Rnase H-minus reverse transcriptase (Thermo Fisher) were used for the initial reverse transcription step. The resulting cDNA libraries were sequenced on an Illumina NextSeq 550 High Output kit with the following run parameters: 37 cycles for read1, 37 cycles for read2, 8 cycles for index1, and 8 cycles for index2.
Sequencing data were demultiplexed with bcl2fastq and roughly 40 million paired-end reads were obtained per sample. Transcript-level quantification was performed using kallisto ([83]) with the homo sapiens GRCh38 reference transcriptome and with bootstrapping. Differential expression analysis at the gene level was conducted using Deseq2 with batch correction of biological replicates ([84]). To pre-filter low count genes, only genes with at least 10 counts in at least 5 samples were analyzed. Compared between conditions, genes with a transcript abundance fold-change > 2 and with a false discovery rate-corrected P-value < 0.01 were called as differentially expressed.

[2] = vs DMSO, 5 hr, HEK293T SD40–eGFP
[3] = vs DMSO, 24 hr, HEK293T SD40–eGFP

## O=C1CCC(N2C(=O)c3ccc(N4CCOCC4)cc3C2=O)C(=O)N1 (centres unmarked) [PT-179]
MOLT4 cells
  proteins downregulated (in words): did not significantly downregulate any detected proteins
MOLT4 cells; vs DMSO, 5 hr, MOLT4
  logFC ACSL1 (P33121): -1.03E+00
  logFC APOBEC3C (Q9NRW3): -8.07E-01
  logFC ARAP2 (Q8WZ64): -9.22E-01
  logFC NXT1 (Q9UKK6): -8.48E-01
  logFC SNX11 (Q9Y5W9): -9.02E-01
HEK293T cells
  proteins downregulated (in words): did not downregulate any detected proteins
HEK293T cells; vs DMSO, 5 hr, HEK293T
  logFC EIF5A (P63241): 1.52E-01
  logFC GAL (P22466): 8.26E-01
  logFC ITPKC (Q96DU7): 6.63E-01
  logFC RBM23 (Q86U06): 2.25E-01
  logFC ROR1 (Q01973): 8.84E-01
[1]; 5 and 24 hours, ≥ 2-fold at p ≤ 0.0001, ~7,800 detected
  proteins degraded (in words): SD40–eGFP was the only significantly degraded protein
[1]; [2]
  logFC MFSD10 (Q14728): -5.07E-01
  logFC RAB18 (Q9NP72): -1.62E-01
  logFC RALY (Q9UKM9): -1.52E-01
  logFC SD40 (XSD40X; SD40–eGFP): -4.05E+00
  logFC SYNCRIP (O60506): -1.02E-01
[1]; [3]
  logFC H2AFV (Q71UI9): 1.94E-01
  logFC RPS15 (P62841): 1.99E-01
  logFC SD40 (XSD40X; SD40–eGFP): -3.53E+00
  logFC SUMO1P1 (G2XKQ0): 1.61E-01
  logFC TAGLN3 (Q9UI15): 4.42E-01
MM.1S cells
  differentially expressed genes: three
MM.1S cells; PT-179 vs pomalidomide
  decrease in the frequency of gene expression perturbation: 475 fold

## Nc1cccc2c1C(=O)N(C1CCC(=O)NC1=O)C2=O (centres unmarked) [pomalidomide, reference compound]
MOLT4 cells
  proteins downregulated (in words): significant downregulation of the previously identified neosubstrates IKZF1 ([9]) and ZFP91
MOLT4 cells; vs DMSO, 5 hr, MOLT4
  logFC DYNLT1 (P63172): -9.35E-01
  logFC IKZF1 (Q13422): -2.37E+00
  logFC IKZF3 (Q9UKT9): -9.56E-01
  logFC RAB28 (P51157): -1.66E+00
  logFC ZFP91 (Q96JP5): -1.83E+00
HEK293T cells
  proteins downregulated (in words): induced degradation of ZFP91
HEK293T cells; vs DMSO, 5 hr, HEK293T
  logFC C3 (P01024): 7.85E-01
  logFC DTWD1 (Q8N5C7): -1.29E+00
  logFC EIF5A (P63241): 1.83E-01
  logFC PKM (P14618): 1.32E-01
  logFC ZFP91 (Q96JP5): -2.05E+00
[1]; 5 hours
  proteins degraded (in words): SD40-eGFP was significantly degraded alongside multiple known endogenous neosubstrates of pomalidomide
[1]; [2]
  logFC MCFD2 (Q8NI22): -1.02E+00
  logFC SD40 (XSD40X; SD40–eGFP): -4.04E+00
  logFC SRSF3 (P84103): -1.12E-01
  logFC SURF4 (O15260): 2.44E-01
  logFC ZFP91 (Q96JP5): -2.03E+00
MM.1S cells
  differentially expressed genes: 1,426 genes
